Test results from US11939294B1 (priority 2023, dated 2024).

System: multidrug-resistant (MDR) strains of Mycobacterium tuberculosis
Experiment: microbe, parasite or virus in culture
Format: cell-based
Details: 192 h, read-out: MIC (μg/mL) MDR-TB, MDR-TB: resistant at least to isoniazid and rifampicin, REMA, 8 days incubation at 37° C.

`Cc1cc(C)c[n+](CC(=O)c2ccc(F)cc2)c1.[Br-]` [Compound 3d, 1-(2-(4-Fluorophenyl)-2-oxoethyl)-3,5-dimethylpyridin-1-ium bromide] showed an MIC of about 8 µg/mL.
